Common to all, as to test: Herbicidal effect test by soil treatment
Type in all cases: in vivo

Series [1] relates to large crabgrass (Digitaria adscendens). The note with it: three weeks after spraying. An excerpt:
(§1) In a plastic box of 15 cm length, 22 cm width and 6 cm depth, there was placed a sterilized dilvial soil, and seeds of barnyardgrass (Echinochloa crusgalli), large crabgrass (Digitaria adscendens), annual sedge (Cyperus microiria), black nightshade (Solanum nigrum L.), hairly galinosoga (Galinsoga ciliat), rorippa ssp. (Rorippa atrovirens), rice (Oryza sativa), corn (Zea mays), wheat (Triticum aestivum), soybean (Glysine max) and cotton (Gossypium herbaceum) were sown mixedly. After covering soil to about 1 cm over the seeds, herbicides were sprayed evenly on the soil surface to predetermined proportions of the active ingredient In spraying, the wettable powder, emulsifiable concentrate, dry flowable or flowable in the above formulation examples were diluted with water and sprayed over the entire surface by means of a small sprayer. Three weeks after spraying, the herbicidal effect on crop plants including rice, corn, wheat, soybean, cotton and various kinds of weeds were examined according to the judgement criteria shown below. Judgement criteria
(§2) The above growth control rates are determined by measuring the top fresh weights of the treated plants and those of the non-treated plants, and culculated from the following formula: [formula]

For series [2], the system named is barnyardgrass (Echinochloa crusgalli). The note with it: three weeks after spraying.
Excerpt: as §1, §2

Series [3] has as its system hairly galinosoga (Galinsoga ciliat). The note with it: three weeks after spraying.
Excerpt: as §1, §2

The next series has as its system corn (Zea mays). Particulars: crop plant, three weeks after spraying.
Excerpt: as §1, §2

In a further series the test system is rice (Oryza sativa). The note with it: crop plant, three weeks after spraying.
Excerpt: as §1, §2

In series [4] the test system is cotton (Gossypium herbaceum). Particulars: crop plant, three weeks after spraying.
Excerpt: as §1, §2

In series [5] the test system is black nightshade (Solanum nigrum L.). Particulars: three weeks after spraying.
Excerpt: as §1, §2

In series [6] the test system is rorippa ssp. (Rorippa atrovirens). Particulars: three weeks after spraying.
Excerpt: as §1, §2

The test system of another series is soybean (Glysine max). Particulars: crop plant, three weeks after spraying.
Excerpt: as §1, §2

The test system of series [7] is annual sedge (Cyperus microiria). Particulars: three weeks after spraying.
Excerpt: as §1, §2

In series [8] the test system is wheat (Triticum aestivum). The note with it: crop plant, three weeks after spraying.
Excerpt: as §1, §2

Consider `CC(C)OC(=O)c1cc(N2C(=O)CC(C(F)(F)F)C(C)C2=O)c(F)cc1Cl` (stereo not drawn) [1-3], for which the “herbicidal effect, M (Digitaria adscendens)” value (from here on “herbicidal effect, M”) in [1] (application amount 0.4 g/a), in series [1] (application amount 0.8 g/a) and in series [1] (application amount 1.6 g/a) was 5 (Growth control,rates of more than 90% (almost completely withered)) throughout. Further, the “herbicidal effect, N (Echinochloa crusgalli)” value (shortened to “herbicidal effect, N”) in [2] (application amount 0.4 g/a), in series [2] (application amount 0.8 g/a) and in series [2] (application amount 1.6 g/a) was 5 (Growth control,rates of more than 90% (almost completely withered)) in each case. For the same molecule, the “herbicidal effect, D (Galinsoga ciliat)” value in [3] (application amount 0.4 g/a), in series [3] (application amount 0.8 g/a) and in series [3] (application amount 1.6 g/a) was 5 (Growth control,rates of more than 90% (almost completely withered)) throughout. Besides, the “herbicidal effect, T (Zea mays)” value is 2 (Growth control rates of 20 to 40%) in the series with corn (Zea mays) (application amount 0.4 g/a), 3 (Growth control rates of 40 to 70%) in the series on corn (Zea mays) (application amount 0.8 g/a) and 4 (Growth control rates of 70 to 90%) in the series with corn (Zea mays) (application amount 1.6 g/a). For the same molecule, the “herbicidal effect, R (Oryza sativa)” value with rice (Oryza sativa) (application amount 0.4 g/a) was 4 (Growth control rates of 70 to 90%); with rice (Oryza sativa) (application amount 0.8 g/a), 5 (Growth control,rates of more than 90% (almost completely withered)); in the series on rice (Oryza sativa) (application amount 1.6 g/a), 5 (Growth control,rates of more than 90% (almost completely withered)). Moreover, the “herbicidal effect, C (Gossypium herbaceum)” value (“herbicidal effect, C” for short) in series [4] (application amount 0.4 g/a) was 0 (Growth control rates of less than 5% (substantially no effect)); in [4] (application amount 0.8 g/a), 1 (Growth control rates of 5 to 20%); in series [4] (application amount 1.6 g/a), 3 (Growth control rates of 40 to 70%). The “herbicidal effect, H (Solanum nigrum L.)” value in series [5] (application amount 0.4 g/a), in series [5] (application amount 0.8 g/a) and in series [5] (application amount 1.6 g/a) was 5 (Growth control,rates of more than 90% (almost completely withered)) in each case. The “herbicidal effect, I (Rorippa indica)” value in [6] (application amount 0.4 g/a), in series [6] (application amount 0.8 g/a) and in series [6] (application amount 1.6 g/a) was 5 (Growth control,rates of more than 90% (almost completely withered)) throughout. Also, the “herbicidal effect, S (Glysine max)” value with soybean (Glysine max) (application amount 0.4 g/a) is 0 (Growth control rates of less than 5% (substantially no effect)); in the series with soybean (Glysine max) (application amount 0.8 g/a), 0 (Growth control rates of less than 5% (substantially no effect)); in the series with soybean (Glysine max) (application amount 1.6 g/a), 2 (Growth control rates of 20 to 40%). The “herbicidal effect, K (Cyperus microiria)” value in [7] (application amount 0.4 g/a), in series [7] (application amount 0.8 g/a) and in series [7] (application amount 1.6 g/a) was 5 (Growth control,rates of more than 90% (almost completely withered)) in each case. The “herbicidal effect, W (Triticum vulgare)” value in series [8] (application amount 0.4 g/a) is given as 2 (Growth control rates of 20 to 40%); in series [8] (application amount 0.8 g/a), 3 (Growth control rates of 40 to 70%); in series [8] (application amount 1.6 g/a), 5 (Growth control,rates of more than 90% (almost completely withered)).
For `CC(C)OC(=O)c1cc(N2C(=O)CC(C(C)C)C(C)C2=O)c(F)cc1Cl` (stereo not drawn) [1-5], the “herbicidal effect, M” value in series [1] (application amount 1.6 g/a) is 5 (Growth control,rates of more than 90% (almost completely withered)). In addition, the “herbicidal effect, N” value in series [2] (application amount 1.6 g/a) is 4 (Growth control rates of 70 to 90%). Further, the “herbicidal effect, D (Galinsoga ciliat)” value in series [3] (application amount 1.6 g/a) is 5 (Growth control,rates of more than 90% (almost completely withered)). Moreover, the “herbicidal effect, T (Zea mays)” value in the series on corn (Zea mays) (application amount 1.6 g/a) is given as 0 (Growth control rates of less than 5% (substantially no effect)). Moreover, in the series with rice (Oryza sativa) (application amount 1.6 g/a), the “herbicidal effect, R (Oryza sativa)” value is reported as 1 (Growth control rates of 5 to 20%). The “herbicidal effect, C” value in series [4] (application amount 1.6 g/a) was 0 (Growth control rates of less than 5% (substantially no effect)). In addition, the “herbicidal effect, H (Solanum nigrum L.)” value in series [5] (application amount 1.6 g/a) is 5 (Growth control,rates of more than 90% (almost completely withered)). Besides, in series [6] (application amount 1.6 g/a), the “herbicidal effect, I (Rorippa indica)” value is on record as 5 (Growth control,rates of more than 90% (almost completely withered)). Also, the “herbicidal effect, S (Glysine max)” value with soybean (Glysine max) (application amount 1.6 g/a) was 0 (Growth control rates of less than 5% (substantially no effect)). In addition, the “herbicidal effect, K (Cyperus microiria)” value in series [7] (application amount 1.6 g/a) is reported as 5 (Growth control,rates of more than 90% (almost completely withered)). Further, the “herbicidal effect, W (Triticum vulgare)” value in series [8] (application amount 1.6 g/a) is on record as 1 (Growth control rates of 5 to 20%).
Regarding `CCOC(=O)c1cc(N2C(=O)CCC(C)C2=O)c(F)cc1Cl` (stereo not drawn) [1-12], the “herbicidal effect, M” value in [1] (application amount 6.3 g/a) is listed as 5 (Growth control,rates of more than 90% (almost completely withered)). In [2] (application amount 6.3 g/a), the “herbicidal effect, N” value is recorded as 2 (Growth control rates of 20 to 40%). The “herbicidal effect, D (Galinsoga ciliat)” value in [3] (application amount 6.3 g/a) was 4 (Growth control rates of 70 to 90%). In the series with corn (Zea mays) (application amount 6.3 g/a), the “herbicidal effect, T (Zea mays)” value was 0 (Growth control rates of less than 5% (substantially no effect)). The “herbicidal effect, R (Oryza sativa)” value in the series on rice (Oryza sativa) (application amount 6.3 g/a) is listed as 2 (Growth control rates of 20 to 40%). Further, the “herbicidal effect, C” value in series [4] (application amount 6.3 g/a) is given as 0 (Growth control rates of less than 5% (substantially no effect)). The “herbicidal effect, H (Solanum nigrum L.)” value in series [5] (application amount 6.3 g/a) was 2 (Growth control rates of 20 to 40%). In addition, the “herbicidal effect, I (Rorippa indica)” value in series [6] (application amount 6.3 g/a) was 5 (Growth control,rates of more than 90% (almost completely withered)). Moreover, the “herbicidal effect, S (Glysine max)” value with soybean (Glysine max) (application amount 6.3 g/a) was 0 (Growth control rates of less than 5% (substantially no effect)). The “herbicidal effect, K (Cyperus microiria)” value in series [7] (application amount 6.3 g/a) is reported as 5 (Growth control,rates of more than 90% (almost completely withered)). Moreover, the “herbicidal effect, W (Triticum vulgare)” value in [8] (application amount 6.3 g/a) was 1 (Growth control rates of 5 to 20%).
For the molecule `CCS(=O)(=O)Nc1cc(N2C(=O)CC(C(F)(F)F)CC2=O)c(F)cc1Cl` [1-15], the “herbicidal effect, M” value in [1] (application amount 1.6 g/a) was 5 (Growth control,rates of more than 90% (almost completely withered)). Further, the “herbicidal effect, N” value in series [2] (application amount 1.6 g/a) is on record as 3 (Growth control rates of 40 to 70%). For the same molecule, in series [3] (application amount 1.6 g/a), the “herbicidal effect, D (Galinsoga ciliat)” value is listed as 5 (Growth control,rates of more than 90% (almost completely withered)). In the series with corn (Zea mays) (application amount 1.6 g/a), the “herbicidal effect, T (Zea mays)” value is on record as 0 (Growth control rates of less than 5% (substantially no effect)). In the series on rice (Oryza sativa) (application amount 1.6 g/a), the “herbicidal effect, R (Oryza sativa)” value is recorded as 0 (Growth control rates of less than 5% (substantially no effect)). The “herbicidal effect, C” value in series [4] (application amount 1.6 g/a) was 0 (Growth control rates of less than 5% (substantially no effect)). Further, in series [5] (application amount 1.6 g/a), the “herbicidal effect, H (Solanum nigrum L.)” value is listed as 5 (Growth control,rates of more than 90% (almost completely withered)). Also, in series [6] (application amount 1.6 g/a), the “herbicidal effect, I (Rorippa indica)” value was 5 (Growth control,rates of more than 90% (almost completely withered)). Also, the “herbicidal effect, S (Glysine max)” value in the series with soybean (Glysine max) (application amount 1.6 g/a) is reported as 0 (Growth control rates of less than 5% (substantially no effect)). For the same molecule, the “herbicidal effect, K (Cyperus microiria)” value in series [7] (application amount 1.6 g/a) is given as 5 (Growth control,rates of more than 90% (almost completely withered)). Moreover, in [8] (application amount 1.6 g/a), the “herbicidal effect, W (Triticum vulgare)” value is 0 (Growth control rates of less than 5% (substantially no effect)).

The record behind these values is EP0454444A1, “Glutarimide derivatives and herbicides” (NISSAN CHEMICAL INDUSTRIES LTD., priority 1990, dated 1991).
